{"source": "patent US8163691B2", "about": "“Compositions and methods for identifying agents which modulate PTEN function and PI-3 kinase pathways” (Indiana University Research & Research Corporation, priority 2000, dated 2012)", "key": {"U87MG cells [1]": {"system": "U87MG cells", "experiment": "Microvessel density (CD31 positive microvessels) in subcutaneous U87MG tumor tissue", "assay_type": "in vivo, mouse", "conditions": "LY294002 100 mg/kg/dose x 2 weeks i.p.; controls (DMSO) 50±6", "procedure": "Microvessel density (MVD) was determined for each brain tumor as described in Example I by CD31 staining, performed on cryostat sections (7 μm), fixed in acetone, blocked in 1% goat serum and stained with anti-CD31 antibody (Pharmingen, #01951D). Antibody staining was visualized with peroxidase-conjugated anti-mouse antibody and counter stained with hematoxylin. A negative control was performed on each tumor tissue stained with mouse IgG. Two sections from each tumor were scanned under low power magnification (40×) to identify areas of highest CD31 positive vessel density (Weidner et al. 1991), followed by digitization of 5 fields from this area. The digitized images representing one 100× field were counted for the number of CD31 positive vascular elements. Data was collected independently by two researchers in a blind study. The average number of microvessels per digitized 100× field was determined for 5 tumors per experimental group and analyzed by Student's t-test. […] Tumor volumes were recorded daily (FIG. 15). […] Microvessel density was assessed from multiple digitized images of CD31-stained tumor tissue at 100× magnification (3 fields were evaluated per tumor) and counted blindly for the number of CD31 positive microvessels per unit surface area as described (Weidner et al., (1991) N. Engl. J. Med. 324:1). […]"}, "U87MG cells [2]": {"system": "U87MG cells", "experiment": "Orthotopic (intracranial) U87MG brain tumor model in nude mice", "assay_type": "in vivo, mouse", "conditions": "examined on day 42; DMSO controls 4/5 by day 25", "procedure": "To determine whether PTEN exerts control over angiogenesis and/or the growth of glial tumors, an orthotopic brain tumor model was developed in which PTEN-deficient tumor cells were genetically manipulated in vitro and then stereotactically injected into the frontal cerebral cortex of nude mice. The U87MG cell line employed in these studies is derived from a patient diagnosed with glioblastoma multiforme, a highly malignant and uniformly fatal brain tumor. This tumor and other human glioblastomas and glioblastoma cell lines contain a mutation in both PTEN alleles (U87MG cells have a homozygous mutation in PTEN resulting in a null genotype). We also examined the effect of LY294002 on tumor growth and incidence of brain tumor in a nude mouse model. In a previous study, in vivo activity of LY294002 against an ovarian carcinoma was observed. […] In other words, the carcinoma was not assessed in its natural milieu. Hu et al., Clin. Can. Res. 6:880). […] In control mice treated with DMSO, 4/5 had grossly visible and/or histologically confirmed brain tumors by H & E analysis by day 25 after implantation, whereas in 0/5 mice treated with LY294002 had grossly detectable or histologic evidence of intracranial tumor when examined on day 42."}, "U87MG cells [3]": {"system": "U87MG cells", "experiment": "Subcutaneous U87MG tumor growth in nude mice", "assay_type": "in vivo, mouse", "conditions": "LY294002 100 mg/kg daily i.p.; control approximately 400 mm3", "procedure": "LY294002 was administered at a dosage of 100 mg/kg delivered daily by intraperitoneal injection in a small volume of 100% DMSO for 2 weeks, beginning 2 days after tumor implantation. […] Control mice were injected with small volume ([…]) of 100% DMSO. Daily measurement of tumor volume was performed in 3 coordinates using calipers. To determine whether PI-3 kinase exerts control over angiogenesis or the growth of glial tumors in vivo the orthotopic brain tumor model described in Example I was utilized. To assess the effect of LY294002 on angiogenesis, we treated mice with LY294002 (100 mg/kg/dose×2 weeks) or DMSO as negative control. Tumor volumes were recorded daily (FIG. 15). On day 14 we stained cryostat sections from subcutaneous tumors for CD31 (PECAM). CD31 is an endothelial marker used to measure the microvessel density of these tumors. Microvessel density was assessed from multiple digitized images of CD31-stained tumor tissue at 100× magnification (3 fields were evaluated per tumor) and counted blindly for the number of CD31 positive microvessels per unit surface area as described (Weidner et al., (1991) N. Engl. J. Med. 324:1). […] Importantly, microvessel determinations were performed on day 7 after implantation to compare angiogenic activity of tumors of similar size. […]"}, "[4]": {"experiment": "Tolerability of treatment in tumor-bearing mice", "assay_type": "in vivo, mouse", "conditions": "100 mg/kg daily i.p. in 100% DMSO for 2 weeks", "procedure": "LY294002 was administered at a dosage of 100 mg/kg delivered daily by intraperitoneal injection in a small volume of 100% DMSO for 2 weeks, beginning 2 days after tumor implantation. […] Control mice were injected with small volume ([…]) of 100% DMSO. Daily measurement of tumor volume was performed in 3 coordinates using calipers."}, "Cbl": {"system": "Cbl", "experiment": "Tyrosine phosphorylation of Cbl after stimulation with sensitized sRBCs (Cbl IP, anti-phosphotyrosine immunoblot)", "assay_type": "cell-based, mouse"}, "J774A.1 cells": {"system": "J774A.1 cells", "experiment": "Fcγ receptor mediated phagocytosis of IgG sensitized sRBCs by J774A.1 cells (phagocytic index)", "assay_type": "cell-based, mouse"}, "[5]": {"system": "U87MG glioblastoma cells, null for PTEN", "experiment": "MTT viable cell assay, chemosensitivity of parental PTEN-null U87MG glioblastoma cells", "assay_type": "cell-based, human", "procedure": "(§1) MTT assays. Cells were seeded (6000/well) into a 96 well plate. Twenty-four hours later the growth medium was changed to 1% serum and other reagents were added as described. Treatments proceeded for 24-72 h. At each time point the MTT assay was performed. MTT (10 ul of a 5 mg/ml stock solution dissolved in RPMI medium) is added to each well of cultures 4 hours before quantitation of viable cell number by measuring absorbance in each well at 650 nm with a microplate reader (Molecular Devises,) Agents added to cell LY294002 alone or in combination with etoposide. In addition, comparison was made between U87MG cells null for PTEN and reconstituted with PTEN protein. The absorbance of each well was measured at […] with a microplate reader."}, "[6]": {"system": "Glioblastoma cells engineered to stably express wild-type PTEN", "experiment": "MTT viable cell assay, chemosensitivity of glioblastoma cells stably expressing wild-type PTEN", "assay_type": "cell-based, human", "procedure": "as §1"}}, "note": "Entries after “also recorded” stand apart in the source; their conditions may differ.", "data": [{"molecule": "O=c1cc(N2CCOCC2)oc2c(-c3ccccc3)cccc12", "note": "[LY294002]", "values": [{"measurement": "microvessel density (MVD), CD31 positive microvessels", "setting": "U87MG cells [1]", "result": "22±5"}, {"measurement": "mice with grossly detectable or histologic evidence of intracranial tumor", "setting": "U87MG cells [2]", "result": "0/5"}, {"measurement": "tumor size at the time of microvessel analysis", "setting": "U87MG cells [3]", "result": "approximately 35 mm3"}, {"measurement": "untoward effects in treated mice", "setting": "[4]", "result": "No untoward effects"}]}, {"molecule": "Cc1ccc(-c2nn(C(C)(C)C)c3ncnc(N)c23)cc1", "note": "[PP1]", "values": [{"measurement": "tyrosine phosphorylation of Cbl induced by sensitized sRBCs", "setting": "Cbl; PP1 10 μM, stimulation with sRBCs 5 minutes", "result": "inhibited significantly; also recorded: abrogated"}, {"measurement": "dose dependence of the effect on Cbl tyrosine phosphorylation", "setting": "Cbl; data not shown", "result": "dose dependent"}, {"measurement": "basal tyrosine phosphorylation levels of Cbl", "setting": "Cbl; resting cells", "result": "suppressed the basal tyrosine phosphorylation levels of Cbl"}, {"measurement": "inhibition of phagocytosis of IgG coated sRBCs (phagocytic index)", "setting": "J774A.1 cells; PP1 10 μM, 1 h pretreatment, target to effector ratio 100:1", "result": "completely abrogated phagocytosis; also recorded: blocks the phagocytosis significantly"}, {"measurement": "dose dependence of inhibition of phagocytosis", "setting": "J774A.1 cells; PP1 1, 5, 10 μM", "result": "dose dependent manner"}, {"measurement": "inhibition of phagocytosis of sensitized sRBCs", "setting": "J774A.1 cells; preincubation of the cells, concentration not given", "result": "inhibit this response"}]}, {"molecule": "COc1cc([C@@H]2c3cc4c(cc3[C@@H](O[C@@H]3O[C@@H]5CO[C@@H](C)O[C@H]5[C@H](O)[C@H]3O)[C@H]3COC(=O)[C@H]23)OCO4)cc(OC)c1O", "note": "[etoposide]", "values": [{"measurement": "IC50", "setting": "[5]; Homo sapiens, U-87 MG, U87MG null for PTEN, or cells stably expressing catalytically inactive PTEN (R130M cells), read-out: etoposide required to achieve a 50% cell kill", "result": 4700, "unit": "nM"}, {"measurement": "cytotoxic activity of etoposide alone", "setting": "[5]; etoposide 1 uM", "result": "minimal cytotoxic activity"}, {"measurement": "increase in sensitivity to etoposide, wild-type PTEN versus PTEN-null cells", "setting": "[6]; 0.047 μM versus 4.7 μM", "result": 100, "unit": "fold"}, {"measurement": "IC50", "setting": "[6]; Homo sapiens, cells stably expressing wild-type PTEN, read-out: etoposide required to achieve a 50% cell kill", "result": 47, "unit": "nM"}]}]}
